Experimental data reported in ChEMBL document CHEMBL1201862, “PubChem BioAssay data set” (2004).
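These data come from cells grown in 96-well plates and exposed to compound for 48 hours at five concentrations. Abbreviation: GI50, concentration required for 50% inhibition of growth.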 The source made the active and inactive calls. Cut-off read from the data, not from the text of the source: active = GI50 up to about 1.1 µM and inactive = higher.

What was measured:
Test in all cases: inhibition of tumour cell growth, NCI panel, 48 h
MDA-N = tested on: MDA-N
M14 = tested on: M14
CAKI-1 = tested on: CAKI-1
CCRF-CEM = tested on: CCRF-CEM
NCI-H460 = tested on: NCI-H460
MOLT-4 = tested on: MOLT-4
HT-29 = tested on: HT-29
SK-OV-3 = tested on: SK-OV-3
786-0 = tested on: 786-0
SF-295 = tested on: SF-295
SW-620 = tested on: SW-620
UACC-62 = tested on: UACC-62
A498 = tested on: A498
U-251 = tested on: U-251
T47D = tested on: T47D
DU-145 = tested on: DU-145
HCC 2998 = tested on: HCC 2998
K562 = tested on: K562
RXF 393 = tested on: RXF 393
NCI-H226 = tested on: NCI-H226
MCF7 = tested on: MCF7
BT-549 = tested on: BT-549
SN12C = tested on: SN12C
A549 = tested on: A549
MDA-MB-435 = tested on: MDA-MB-435
HOP-92 = tested on: HOP-92
LOX IMVI = tested on: LOX IMVI
IGROV-1 = tested on: IGROV-1
PC-3 = tested on: PC-3
SF-539 = tested on: SF-539
OVCAR-3 = tested on: OVCAR-3
MDA-MB-231 = tested on: MDA-MB-231
COLO 205 = tested on: COLO 205
HCT-15 = tested on: HCT-15
NCI/ADR-RES = tested on: NCI/ADR-RES
SR = tested on: SR
SNB-19 = tested on: SNB-19
TK-10 = tested on: TK-10
SK-MEL-28 = tested on: SK-MEL-28
SK-MEL-5 = tested on: SK-MEL-5
SF-268 = tested on: SF-268
EKVX = tested on: EKVX
HCT-116 = tested on: HCT-116
NCI-H522 = tested on: NCI-H522
UACC-257 = tested on: UACC-257
HL-60 = tested on: HL-60
UO-31 = tested on: UO-31
KM12 = tested on: KM12
OVCAR-4 = tested on: OVCAR-4
Malme-3M = tested on: Malme-3M
OVCAR-8 = tested on: OVCAR-8
HOP-62 = tested on: HOP-62
Hs-578T = tested on: Hs-578T
RPMI-8226 = tested on: RPMI-8226
ACHN = tested on: ACHN
SK-MEL-2 = tested on: SK-MEL-2
SNB-75 = tested on: SNB-75
NCI-H23 = tested on: NCI-H23
OVCAR-5 = tested on: OVCAR-5

O=C(Cc1nccc2c1[nH]c1ccccc12)OC1C#CCSCC#C/C=C\1 (stereo not drawn)
GI50 (MDA-N): > 100 µM (inactive)
GI50 (M14): > 100 µM (inactive)
GI50 (CAKI-1): > 100 µM (inactive)
GI50 (CCRF-CEM): 38.8 µM (inactive)
GI50 (NCI-H460): > 100 µM (inactive)
GI50 (MOLT-4): 39.5 µM (inactive)
GI50 (HT-29): > 100 µM (inactive)
GI50 (SK-OV-3): > 100 µM (inactive)
GI50 (786-0): > 100 µM (inactive)
GI50 (SF-295): 87.9 µM (inactive)
GI50 (SW-620): > 100 µM (inactive)
GI50 (UACC-62): > 100 µM (inactive)
GI50 (A498): 78.5 µM (inactive)
GI50 (U-251): > 100 µM (inactive)
GI50 (T47D): 72.1 µM (inactive)
GI50 (DU-145): > 100 µM (inactive)
GI50 (HCC 2998): > 100 µM (inactive)
GI50 (K562): 43 µM (inactive)
GI50 (RXF 393): > 100 µM (inactive)
GI50 (NCI-H226): > 100 µM (inactive)
GI50 (MCF7): > 100 µM (inactive)
GI50 (BT-549): > 100 µM (inactive)
GI50 (SN12C): > 100 µM (inactive)
GI50 (A549): > 100 µM (inactive)
GI50 (MDA-MB-435): 75.7 µM (inactive)
GI50 (HOP-92): > 100 µM (inactive)
GI50 (LOX IMVI): 57.9 µM (inactive)
GI50 (IGROV-1): > 100 µM (inactive)
GI50 (PC-3): > 100 µM (inactive)
GI50 (SF-539): > 100 µM (inactive)
GI50 (OVCAR-3): 95.9 µM (inactive)
GI50 (MDA-MB-231): > 100 µM (inactive)
GI50 (COLO 205): 52.1 µM (inactive)
GI50 (HCT-15): > 100 µM
GI50 (NCI/ADR-RES): > 100 µM (inactive)
GI50 (SR): > 100 µM (inactive)
GI50 (SNB-19): > 100 µM (inactive)
GI50 (TK-10): > 100 µM (inactive)
GI50 (SK-MEL-28): > 100 µM (inactive)
GI50 (SK-MEL-5): > 100 µM (inactive)
GI50 (SF-268): > 100 µM (inactive)
GI50 (EKVX): 64.4 µM (inactive)
GI50 (HCT-116): 50 µM (inactive)
GI50 (NCI-H522): 44.2 µM (inactive)
GI50 (UACC-257): > 100 µM (inactive)
GI50 (HL-60): 57 µM (inactive)
GI50 (UO-31): 71.4 µM (inactive)
GI50 (KM12): > 100 µM (inactive)
GI50 (OVCAR-4): > 100 µM (inactive)
GI50 (Malme-3M): > 100 µM (inactive)
GI50 (OVCAR-8): > 100 µM (inactive)
GI50 (HOP-62): > 100 µM (inactive)
GI50 (Hs-578T): > 100 µM (inactive)
GI50 (RPMI-8226): > 100 µM (inactive)
GI50 (ACHN): > 100 µM (inactive)

CCCCCCCCCC[C@H](O)[C@H]1CC[C@H]([C@H]2CC[C@H]([C@H](O)CC[C@H](O)CCCCCCC[C@@H](O)CC3=C[C@H](C)OC3=O)O2)O1
GI50 (MDA-N): 8.75 µM (inactive)
GI50 (M14): 46.9 µM (inactive)
GI50 (CAKI-1): 57 µM (inactive)
GI50 (CCRF-CEM): 3.6 µM (inactive)
GI50 (NCI-H460): 1.46 µM (inactive)
GI50 (MOLT-4): 2.96 µM (inactive)
GI50 (HT-29): > 10 µM (inactive)
GI50 (786-0): 25.1 µM (inactive)
GI50 (SF-295): 1.66 µM (inactive)
GI50 (SW-620): > 10 µM (inactive)
GI50 (UACC-62): > 10 µM (inactive)
GI50 (A498): 1.75 µM (inactive)
GI50 (U-251): > 10 µM (inactive)
GI50 (SK-MEL-2): 78 µM (inactive)
GI50 (T47D): 5.25 µM (inactive)
GI50 (SNB-75): 19.1 µM (inactive)
GI50 (DU-145): > 10 µM (inactive)
GI50 (HCC 2998): > 100 µM (inactive)
GI50 (K562): 2.96 µM (inactive)
GI50 (RXF 393): 40 µM (inactive)
GI50 (NCI-H226): 2.47 µM (inactive)
GI50 (MCF7): 1.52 µM (inactive)
GI50 (BT-549): 68.1 µM (inactive)
GI50 (SN12C): 91.4 µM (inactive)
GI50 (A549): 4.6 µM (inactive)
GI50 (MDA-MB-435): 3.9 µM (inactive)
GI50 (HOP-92): 6.93 µM (inactive)
GI50 (LOX IMVI): 7.46 µM (inactive)
GI50 (IGROV-1): 15.7 µM (inactive)
GI50 (PC-3): 5.7 µM (inactive)
GI50 (SF-539): 24 µM (inactive)
GI50 (OVCAR-3): 18.3 µM (inactive)
GI50 (MDA-MB-231): > 10 µM (inactive)
GI50 (NCI-H23): 1.82 µM (inactive)
GI50 (COLO 205): 12.2 µM (inactive)
GI50 (HCT-15): 43.9 µM
GI50 (NCI/ADR-RES): 1.61 µM (inactive)
GI50 (SR): 9.14 µM (inactive)
GI50 (SNB-19): 17 µM (inactive)
GI50 (TK-10): 31 µM (inactive)
GI50 (SK-MEL-28): > 10 µM (inactive)
GI50 (OVCAR-5): > 10 µM (inactive)
GI50 (SK-MEL-5): 1.41 µM (inactive)
GI50 (SF-268): 3.57 µM (inactive)
GI50 (EKVX): 23.5 µM (inactive)
GI50 (HCT-116): < 0.01 µM (active)
GI50 (NCI-H522): 10.7 µM (inactive)
GI50 (UACC-257): 1.08 µM (active)
GI50 (HL-60): 2.51 µM (inactive)
GI50 (UO-31): 2.02 µM (inactive)
GI50 (KM12): 9.14 µM (inactive)
GI50 (OVCAR-4): 41.4 µM (inactive)
GI50 (Malme-3M): 25.8 µM (inactive)
GI50 (OVCAR-8): 85.7 µM (inactive)
GI50 (HOP-62): > 10 µM (inactive)
GI50 (Hs-578T): > 10 µM (inactive)
GI50 (RPMI-8226): 1.04 µM (active)
GI50 (ACHN): 1.6 µM (inactive)
